Consider 2 molecules from ChEMBL document CHEMBL3352440, “Design, synthesis and SAR exploration of tri-substituted 1,2,4-triazoles as inhibitors of the annexin A2-S100A10 protein interaction” (Bioorg Med Chem, 2014).

The assay deals with Annexin A2/S100-A10 (Homo sapiens) (UniProt P07355+P60903). Nature of the assay: Inhibition of Annexin A2/Protein S100-A10 protein interaction in human MDA-MB-231 cells by Western blotting based immunoprecipitation assay. Type of assay: cell-based. Background: A western blot detects proteins with antibodies after separation by electrophoresis.
Chain of Annexin A2/S100-A10 (Homo sapiens) (P07355 2-339 limits assumed): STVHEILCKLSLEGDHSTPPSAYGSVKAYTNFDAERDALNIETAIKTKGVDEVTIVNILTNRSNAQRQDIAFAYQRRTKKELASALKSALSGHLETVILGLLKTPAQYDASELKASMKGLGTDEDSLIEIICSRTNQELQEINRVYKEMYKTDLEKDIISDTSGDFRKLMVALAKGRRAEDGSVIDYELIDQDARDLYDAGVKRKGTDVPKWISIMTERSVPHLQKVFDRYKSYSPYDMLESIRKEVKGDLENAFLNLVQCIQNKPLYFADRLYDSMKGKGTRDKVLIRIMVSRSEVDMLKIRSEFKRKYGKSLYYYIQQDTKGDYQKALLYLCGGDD
Chain of Annexin A2/S100-A10 (Homo sapiens) (P60903 whole entry partner): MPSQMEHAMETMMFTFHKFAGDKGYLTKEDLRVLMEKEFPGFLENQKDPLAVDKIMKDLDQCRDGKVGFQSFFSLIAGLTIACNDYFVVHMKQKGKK

Active and inactive are the calls of the source. The calls are words filed in the database; no cut-off is given here.

Consider Ac-MSTVHEILCKLSLE-OH, for which the inhibition result is “Active”.
In the case of `Cc1cc(C)nc(SCc2nnc(SCC(=O)Nc3ccc(C(C)C)cc3)n2Cc2ccco2)n1` it was “Active”.
